Test results from PMC11671014 (PLOS Pathogens, 2024).
Read-outs that look alike come from different tables or passages of the source.

Assays:
[1] = tested on: stage V NF54 strain male and female gametocytes; test: P. falciparum Dual Gamete Formation Assay (PfDGFA); assay type: cell-based; conditions: Plasmodium falciparum, 48 h
Description: Inhibition of the viability of stage V male and female gametocytes was assessed in the P. falciparum Dual Gamete Formation Assay (PfDGFA) as described previously. Briefly, mature stage V NF54 strain gametocytes were incubated with test molecules for 48 h in 384-well plates at 37°C. Gametogenesis was then triggered by cooling the plates to room temperature and addition of xanthurenic acid-containing activating medium (also containing anti-Pfs25 antibody (Mab 4B7) conjugated to a Cy3 fluorophore). Twenty minutes after activation, exflagellation was imaged in all wells of the plate using a x4 objective and automated brightfield microscopy. The plate was then incubated at 20°C for a further 24 h in the dark. Thereafter, female gamete formation was quantified by automated identification of Pfs25-positive cells. Automated counts were transformed to percent inhibition values with reference to positive 100 nM Cabamiquine (DDD498) and negative (DMSO) controls. Data represent the means of multiple independent biological repeats.

[2] = tested on: P. falciparum (strain 3D7A); design: method as in ref [1] Sanz et al., PloS one 2012; conditions: 10 x IC50; ref [1] Sanz et al., PloS one 2012; cited from earlier work
[3] = tested on: P. falciparum liver stage schizont (NF175); test: Liver stage schizont assay in primary human hepatocytes (NF175); assay type: cell-based; conditions: Plasmodium falciparum, Hepatocyte, 96 h, four days
Description: Activity against liver stage parasites was performed using a modification of published procedures. Briefly, cryopreserved human primary hepatocytes (NF175: H1500.H15B+ Lot No. HC0-6, TebuBio or NF135: F00995-P Lot No. IRZ, BioIVT) were thawed and seeded at 18,000 cells per well in collagen-coated 384-well microtiter plates in medium containing 10% heat inactivated fetal bovine serum (hiFBS). Cells were cultured at 37°C in 5% CO2. For NF175, medium was replaced by fresh medium containing 10% hiFBS, 5 h post plating. For NF135, medium was replaced by medium containing 0.2% BSA, 24 h post plating. 48 h post plating, salivary glands from Plasmodium-NF175 or NF135-infected Anopheles stephensi mosquitoes were dissected, added to the hepatocytes (10,000 per well/ NF175; or 12,500 per well/ NF135) and allowed to infect for 3 hours. Sporozoites were then aspirated, and compounds diluted in medium containing 10% hiFBS or 0.2% BSA, were added to the hepatocytes. Medium containing 10% hiFBS or 0.2% BSA and compounds was refreshed daily for four days. […] Cells were imaged on a PicoExpress high content imager, and images were analysed automatically using CellReporterXpress software. Data were analysed by logistic regression using a four-parameter (Hill equation) model and a least-squares method to find the best fit.

Primary hepatocytes = test: Toxicity to primary hepatocyte host cells in the liver stage assay; assay type: cell-based, human; conditions: Homo sapiens, Hepatocyte
Description: (§1) Activity against liver stage parasites was performed using a modification of published procedures. Briefly, cryopreserved human primary hepatocytes (NF175: H1500.H15B+ Lot No. HC0-6, TebuBio or NF135: F00995-P Lot No. IRZ, BioIVT) were thawed and seeded at 18,000 cells per well in collagen-coated 384-well microtiter plates in medium containing 10% heat inactivated fetal bovine serum (hiFBS). Cells were cultured at 37°C in 5% CO2. For NF175, medium was replaced by fresh medium containing 10% hiFBS, 5 h post plating. For NF135, medium was replaced by medium containing 0.2% BSA, 24 h post plating. 48 h post plating, salivary glands from Plasmodium-NF175 or NF135-infected Anopheles stephensi mosquitoes were dissected, added to the hepatocytes (10,000 per well/ NF175; or 12,500 per well/ NF135) and allowed to infect for 3 hours. Sporozoites were then aspirated, and compounds diluted in medium containing 10% hiFBS or 0.2% BSA, were added to the hepatocytes. Medium containing 10% hiFBS or 0.2% BSA and compounds was refreshed daily for four days. Hepatocytes were fixed with ice-cold methanol and samples were blocked with 10% hiFBS in PBS. Schizonts were stained with rabbit anti-HSP70 in 10% hiFBS for 1–2 h followed by incubation with a mixture of secondary goat anti-rabbit AlexaFluor 594 antibody and 4′,6-diamidine-2′-phenylindole dihydrochloride (DAPI) in 10% hiFBS for 30 min. Samples were washed with PBS containing 0.05% Tween 20 between different steps. Cells were imaged on a PicoExpress high content imager, and images were analysed automatically using CellReporterXpress software. Data were analysed by logistic regression using a four-parameter (Hill equation) model and a least-squares method to find the best fit.

[4] = tested on: Pf3D7-pfs16-CBG99 gametocytes, immature (stage II/III) and mature (stage V); test: Gametocyte killing assay (luciferase); assay type: cell-based; conditions: Plasmodium falciparum, 48 h
Description: Gametocytogenesis was induced on a tightly synchronised (>97% rings) asexual parasite culture (Pf3D7-pfs16-CBG99 (kind gift from Pietro Alano), 0.5% parasitemia and 6% hematocrit) with a combination of nutrient starvation and a decrease in hematocrit, as previously described. For immature gametocytes (>90% stage II/III), cultures were exposed to 50 mM N-acetyl glucosamine (NAG) on days 1–4 to eliminate residual asexual parasites and harvested at days 5–6. For mature (>95% stage V) gametocytes, NAG treatment occurred from days 3–7 and harvest at day 13. Stage II/III and V gametocyte cultures (2 % gametocytaemia 1.5 % haematocrit, 150 μL/well) were exposed to compounds and incubated at 37°C for 48 h under hypoxic conditions, after which luciferase activity was determined with a non-lysing D-luciferin substrate (1mM in 0.1M citrate buffer, pH 5.5, 100 μL) and bioluminescence was detected with a 2 s integration time with a GloMax-Multi Detection System with Instinct software.

[5] = tested on: P. falciparum liver stage schizont (NF135); test: Liver stage schizont assay in primary human hepatocytes (NF135); assay type: cell-based; conditions: Plasmodium falciparum, Hepatocyte, 96 h, four days
Description: as §1

[6] = tested on: P. falciparum (strain 3D7A); test: Parasite Reduction Rate (PRR) estimation; assay type: cell-based, Plasmodium falciparum; conditions: 10 x IC50
Description: PRR was assessed using a standardized method. P. falciparum (strain 3D7A, MRA-151), contributed by David Walliker, was obtained through BEI Resources, NIAID, NIH. Cultures of parasites (~90% ring stage) were treated with compounds for 120 h, with daily renewal. Samples of parasites were taken at 0, 24, 48, 72, 96 and 120 h. Compounds were washed out and four independent 3-fold serial dilutions were established in 96-well plates, with fresh RBCs and culture medium. After 18 days, and again at 22 days, samples were taken to examine growth using SYBR Green I in an EnVision Multilabel Plate Reader (Perkin Elmer) and analysed using Excel and Grafit 5.0 software. The human biological samples were sourced ethically, and their research use was in accord with the terms of the informed consents under an IRB/EC approved protocol.

[7] = tested on: P. falciparum Brazilian field isolates; test: Ex vivo drug susceptibility of Brazilian field isolates (P. falciparum); assay type: cell-based; conditions: Plasmodium falciparum
Description: (§2) Compounds were assayed on ten P. vivax isolates and seven P. falciparum Brazilian isolates collected from mono-infected patients, who had signed a written informed consent form to participate in the study, using previously described methods. The initial parasitemia ranged from 2,100–8,000 parasites/μL for P. vivax and 3,500–9,000 parasites/μL for P. falciparum isolates. Artesunate and chloroquine were assayed in parallel as standard compounds. The analyses included only the isolates that were incubated for ≥ 40 h with the compounds.

[8] = tested on: P. vivax Brazilian field isolates; test: Ex vivo drug susceptibility of Brazilian field isolates (P. vivax); assay type: cell-based; conditions: Plasmodium vivax
Description: as §2

[9] = biological target: the molecule itself; test: crystal structure; PfTyrRS (10 mg/mL) with 500 uM synthetic Tyr-ML471; sitting drop vapour diffusion at 20°C, 2.25 M sodium malonate pH 6; refined at 1.8 Å

What does the source list for `O=C(NCCN1CCCC1)c1cc(-c2ccc(CN3CCOCC3)cc2)nc2ccc(F)cc12` [Cabamiquine, reference compound]?
IC50 ([1]; female, read-out: Dual gamete formation assay (female) IC50(48h)): 2.2 ± 0.1 nM; IC50 ([1]; male, read-out: Dual gamete formation assay (male) IC50(48h)): 2.3 ± 0.4 nM

For `O=C1C(O)=C([C@H]2CC[C@H](c3ccc(Cl)cc3)CC2)C(=O)c2ccccc21` [Atovaquone], which Lag phase [2] is on record?
Its Lag phase is 48 h.

And the “Log PRR” value [2]?
Its value is 2.9.

And the PCT99.9% [2]?
Its PCT99.9% is 90 h.

And the Slope [2]?
Its Slope is -0.060.

And the IC50 [3]?
Its IC50 is 7 ± 3.9 nM.

What about the IC50 (Primary hepatocytes; host cells of the NF175 experiment) of the same molecule?
Its IC50 is > 1000 nM.

For `CS(=O)(=O)c1ccc(-c2cnc(N)c(-c3ccc(C(F)(F)F)nc3)c2)cc1` [MMV390048, reference compound], which IC50 ([4]; read-out: Early stage gametocytes IC50) is on record?
Its IC50 is 138 ± 8 nM.

What about the IC50 ([4]; read-out: Mature stage gametocytes IC50) of the same molecule?
Its IC50 is 150 ± 20 nM.

What about the IC50 [5] of the same molecule?
Its IC50 is 23.3 ± 13.3 nM.

What about the IC50 (Primary hepatocytes; host cells of the NF135 experiment) of the same molecule?
The IC50 was > 100 nM.

With `CCc1nc(N)nc(N)c1-c1ccc(Cl)cc1` [Pyrimethamine, reference compound] as the molecule, how does the Lag phase [6] read?
The Lag phase was 24 h.

What about the “Log PRR” value [6] of the same molecule?
The value was 3.7.

And the PCT99.9% [6]?
The PCT99.9% was 56 h.

And the Slope [6]?
Its Slope is -0.078.

Which results are given for `CCN(CC)CCCC(C)Nc1ccnc2cc(Cl)ccc12` (stereo not drawn) [Chloroquine]?
EC50 ([7]; read-out: EC50 range, P. falciparum Brazilian field isolates): 172 to 520 nM; EC50 ([7]; read-out: Median EC50, P. falciparum Brazilian field isolates): 286 nM; Lag phase [2]: 0 h; PCT99.9% [2]: 33.8 h; Slope [2]: -0.094; EC50 ([8]; read-out: EC50 range, P. vivax Brazilian field isolates): 104 to 560 nM; EC50 ([8]; read-out: Median EC50, P. vivax Brazilian field isolates): 143 nM

B1: Plasmodium falciparum cytoplasmic tyrosine tRNA synthetase (enzyme, P. falciparum)
chain: METTDTKREEQEIEEKKAQEESKIEDVDKILNDILSISSECIQPDELRVKLLLKRKLICYDGFEPSGRMHIAQGLLKSIIVNKLTSNGCTFIFWIADWFAHLNNKMSGDLKKIKKVGSYFIEVWKSCGMNMENVQFLWASEEINKKPNEYWSLVLDISRSFNINRMKRCLKIMGRSEGEENYCSQILYPCMQCADIFFLNVDICQLGIDQRKVNMLAREYCDIKKIKKKPVILSHGMLPGLLEGQEKMSKSDENSAIFMDDSESDVNRKIKKAYCPPNVIENNPIYAYAKSIIFPSYNEFNLVRKEKNGGDKTYYTLQELEHDYVNGFIHPLDLKDNVAMYINKLLQPVRDHFQNNIEAKNLLNEIKKYKVTK
notes: Plasmodium falciparum cytoplasmic tyrosine tRNA synthetase; also called PfTyrRS; His-PfTyrRS; source: E. coli BL21(DE3), purified (HisTrap HP, TEV cleavage, second HisTrap HP, Superdex 200 gel filtration)
For B1, which “stoichiometry N” value [9] is on record?
Its value is 2.
